The source of these data is patent US10668051B2, “Modulators of calcium release-activated calcium channel” (Rhizen Pharmaceuticals SA, priority 2009, dated 2020).

Molecules are shown by their SMILES. Counter-ions that a name gives are not always drawn.

One may read the inhibition as the share of the control response that was lost under treatment.

Sequence of CRAC channels (Q96D31 whole entry): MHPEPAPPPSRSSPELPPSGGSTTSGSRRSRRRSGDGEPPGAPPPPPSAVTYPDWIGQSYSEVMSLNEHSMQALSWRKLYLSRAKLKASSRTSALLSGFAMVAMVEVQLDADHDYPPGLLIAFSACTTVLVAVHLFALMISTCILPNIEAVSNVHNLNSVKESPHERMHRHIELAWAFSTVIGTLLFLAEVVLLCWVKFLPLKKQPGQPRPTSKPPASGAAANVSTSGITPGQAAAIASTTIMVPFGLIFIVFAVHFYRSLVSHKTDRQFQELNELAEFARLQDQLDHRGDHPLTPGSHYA

The assay addresses CRAC channels (Homo sapiens (Human), UniProt Q96D31). The experiment in a line: In-vitro CRAC channel inhibition assay in Jurkat cells (thapsigargin-induced calcium influx). It is filed as cell-based. As for the experimental part: 1A. In-Vitro CRAC Channel Inhibition Assay in Jurkat Cells
Plate is incubated at 37° C./5% CO2 for 30 min followed by further 15 min incubation at room temperature. Test compounds (DMSO stocks diluted in Ca^2+ and Mg^2+ free Hanks buffer) at desired concentrations were added to the wells and incubated for 15 min. Thapsigargin (1 μM final concentration) was added to the wells and incubated for 15 min to inhibit the Sarco-endoplasmic reticulum Ca^2+ ATPase pump thereby depleting endoplasmic calcium and raising cytosolic calcium concentrations. Store-operated calcium entry was initiated by adding extracellular Ca^2+ to a final concentration of 1.8 mM. Fluorescence was monitored over 5 min on a plate reader (BMG Labtech., Germany) with excitation at 485 nm and; an emission wavelength at 520 nm. Data were analyzed using GraphPad Prism. IC50 for each compound was determined based on the percent inhibition of thapsigargin-induced calcium influx into cells.
Turning to `O=C(Cc1ccccn1)Nc1ccc(-n2nc(C3CC3)cc2C2CC2)cc1` [Example 22, N-[4-(3,5-dicyclopropyl-1H-pyrazol-1-yl)phenyl]-2-(pyridin-2-yl)acetamide hydrochloride], the inhibition at 1 µM is 73.4%.

For `O=C(Cc1cccnc1)Nc1ccc(-n2nc(C3CC3)cc2C2CC2)cc1` [Example 23, N-[4-(3,5-dicyclopropyl-1H-pyrazol-1-yl)phenyl]-2-(pyridin-3-yl)acetamide hydrochloride], the inhibition at 1 µM stood at 53.8%.

Regarding `O=C(Cc1ccncc1)Nc1ccc(-n2nc(C3CC3)cc2C2CC2)cc1` [Example 24, N-[4-(3,5-dicyclopropyl-1H-pyrazol-1-yl)phenyl]-2-(pyridin-4-yl)acetamide hydrochloride], the inhibition at 1 µM amounted to 38%.

`O=C(CN1CCNCC1)Nc1ccc(-n2nc(C3CC3)cc2C2CC2)cc1` [Example 25, N-[4-(3,5-dicyclopropyl-1H-pyrazol-1-yl)phenyl]-2-(piperazin-1-yl)acetamide hydrochloride]: the inhibition at 1 µM was determined as 29%.

For the compound `O=C(CN1CCOCC1)Nc1ccc(-n2nc(C3CC3)cc2C2CC2)cc1` [Example 26, N-[4-(3,5-dicyclopropyl-1H-pyrazol-1-yl)phenyl]-2-morpholinoacetamide], the inhibition at 1 µM was 43%.

In the case of `O=S(=O)(Nc1ccc(-n2nc(C3CC3)cc2C2CC2)cc1)c1ccccc1` [Example 27, N-[4-(3,5-dicyclopropyl-1H-pyrazol-1-yl)phenyl]benzenesulfonamide], the inhibition at 1 µM amounted to 91.2%.

Regarding `Cc1ncsc1C(=O)Nc1ccc(-n2nc(C3CC3)cc2C2CC2)c(F)c1` [Example 29, N-[4-(3,5-dicyclopropyl-1H-pyrazol-1-yl)-3-fluorophenyl]-4-methylthiazole-5-carboxamide], the inhibition at 1 µM stood at 100%.

Regarding `Cc1noc(C)c1C(=O)Nc1ccc(-n2nc(C3CC3)cc2C2CC2)c(F)c1` [Example 30, N-[4-(3,5-dicyclopropyl-1H-pyrazol-1-yl)-3-fluorophenyl]-3,5-dimethylisoxazole-4-carboxamide], the inhibition at 1 µM came out at 35.1%.

Consider `Cc1ccccc1C(=O)Nc1ccc(-n2nc(C3CC3)cc2C2CC2)c(F)c1` [Example 31, N-[4-(3,5-dicyclopropyl-1H-pyrazol-1-yl)-3-fluorophenyl]-2-methyl benzamide], for which the inhibition at 1 µM was 77%.

With `O=C(Nc1ccc(-n2nc(C3CC3)cc2C2CC2)c(F)c1)c1cccc(F)c1F` [Example 32, N-[4-(3,5-dicyclopropyl-1H-pyrazol-1-yl)-3-fluorophenyl]-2,3-difluorobenzamide], the inhibition at 1 µM turned out to be 63.6%.

`O=C(Nc1ccc(-n2nc(C3CC3)cc2C2CC2)c(F)c1)c1c(F)cccc1F` [Example 33, N-[4-(3,5-dicyclopropyl-1H-pyrazol-1-yl)-3-fluorophenyl]-2,6-difluorobenzamide]: the inhibition at 1 µM stood at 93.1%.

As for `O=C(Nc1ccc(-n2nc(C3CC3)cc2C2CC2)c(F)c1)c1cccnc1` [Example 34, N-[4-(3,5-dicyclopropyl-1H-pyrazol-1-yl)-3-fluorophenyl]nicotinamide hydrochloride], the inhibition at 1 µM worked out at 21.5%.

Turning to `Cl.O=C(Nc1ccc(-n2nc(C3CC3)cc2C2CC2)c(F)c1)c1ccncc1` [Example 35, N-[4-(3,5-dicyclopropyl-1H-pyrazol-1-yl)-3-fluorophenyl]isonicotinamde hydrochloride], the “% inhibition (1 uM)” value came out at 100%.

Consider `Cc1ncncc1C(=O)Nc1ccc(-n2nc(C3CC3)cc2C2CC2)c(F)c1` [Example 36, N-[4-(3,5-dicyclopropyl-1H-pyrazol-1-yl)-3-fluorophenyl]-4-methylpyrimidine-5-carboxamide], for which the inhibition at 1 µM is 68.2%.

In the case of `Cc1nnsc1C(=O)Nc1ccc(-n2nc(C3CC3)c(Cl)c2C2CC2)c(F)c1` [Example 37, N-[4-(4-chloro-3,5-dicyclopropyl-1H-pyrazol-1-yl)-3-fluorophenyl]-4-methyl-1,2,3-thiadiazole-5-carboxamide], the inhibition at 1 µM was 82.2%.

Take `Cc1nnsc1C(=O)Nc1ccc(-n2nc(C3CC3)cc2C2CC2)nc1` [Example 38, N-[6-(3,5-dicyclopropyl-1H-pyrazol-1-yl)pyridin-3-yl]-4-methyl-1,2,3-thiadiazole-5-carboxamide hydrochloride]: the inhibition at 1 µM amounted to 52.7%.

`Cc1ncsc1C(=O)Nc1ccc(-n2nc(C3CC3)cc2C2CC2)nc1` [Example 39, N-[6-(3,5-dicyclopropyl-1H-pyrazol-1-yl)pyridin-3-yl]-4-methylthiazole-5-carboxamide hydrochloride]: the inhibition at 1 µM amounted to 41.3%.

For `Cc1nc(C)c(C(=O)Nc2ccc(-n3nc(C4CC4)cc3C3CC3)nc2)s1` [Example 40, N-[6-(3,5-dicyclopropyl-1H-pyrazol-1-yl)pyridin-3-yl]-2,4-dimethylthiazole-5-carboxamide], the inhibition at 1 µM amounted to 12.6%.

In the case of `Cc1noc(C)c1C(=O)Nc1ccc(-n2nc(C3CC3)cc2C2CC2)nc1` [Example 41, N-[6-(3,5-dicyclopropyl-1H-pyrazol-1-yl)pyridin-3-yl]-3,5-dimethylisoxazole-4-carboxamide], the inhibition at 1 µM is 0%.

Turning to `Cc1ccccc1NC(=O)c1ccc(-n2nc(C3CC3)cc2C2CC2)nc1` [Example 42, 6-(3,5-dicyclopropyl-1H-pyrazol-1-yl)-N-o-tolylnicotinamide], the inhibition at 1 µM turned out to be 26.2%.

As for `O=C(Nc1ccc(-n2nc(C3CC3)cc2C2CC2)nc1)c1ccccc1F` [Example 43, N-[6-(3,5-dicyclopropyl-1H-pyrazol-1-yl)pyridin-3-yl]-2-fluorobenzamide], the inhibition at 1 µM was 9.34%.

Consider `O=C(Nc1ccc(-n2nc(C3CC3)cc2C2CC2)nc1)c1cccc(F)c1F` [Example 44, N-[6-(3,5-dicyclopropyl-1H-pyrazol-1-yl)pyridin-3-yl]-2,3-difluorobenzamide hydrochloride], for which the inhibition at 1 µM came out at 63.4%.

As for `O=C(Nc1ccc(-n2nc(C3CC3)cc2C2CC2)nc1)c1c(F)cccc1F` [Example 45, N-[6-(3,5-dicyclopropyl-1H-pyrazol-1-yl)pyridin-3-yl]-2,6-difluorobenzamide hydrochloride], the inhibition at 1 µM was 72.3%.

Turning to `O=C(Nc1ccc(-n2nc(C3CC3)cc2C2CC2)nc1)c1cccnc1` [Example 46, N-[6-(3,5-dicyclopropyl-1H-pyrazol-1-yl)pyridin-3-yl]nicotinamide dihydrochloride], the inhibition at 1 µM worked out at 0.26%.

As to `O=C(Nc1ccc(-n2nc(C3CC3)cc2C2CC2)nc1)c1ccncc1` [Example 47, N-[6-(3,5-dicyclopropyl-1H-pyrazol-1-yl)pyridin-3-yl]isonicotinamide dihydrochloride], the inhibition at 1 µM is 10.4%.

In the case of `O=C(Nc1ccc(-n2nc(C3CC3)cc2C2CC2)nc1)c1ccncc1F` [Example 48, N-[6-(3,5-dicyclopropyl-1H-pyrazol-1-yl)pyridin-3-yl]-3-fluoroisonicotinamide], the inhibition at 1 µM came out at 12.3%.

Turning to `O=C(Nc1ccc(-n2nc(C3CC3)cc2C2CC2)nc1)c1c(Cl)cncc1Cl` [Example 50, 3,5-dichloro-N-[6-(3,5-dicyclopropyl-1H-pyrazol-1-yl)pyridin-3-yl]isonicotinamide hydrochloride], the inhibition at 1 µM is 29.8%.

Regarding `Cc1ncncc1C(=O)Nc1ccc(-n2nc(C3CC3)cc2C2CC2)nc1` [Example 51, N-[6-(3,5-dicyclopropyl-1H-pyrazol-1-yl)pyridin-3-yl]-4-methylpyrimidine-5-carboxamide hydrochloride], the inhibition at 1 µM was 0%.

With `Cc1ncsc1C(=O)N(C)c1ccc(-n2nc(C(F)(F)F)cc2C2CC2)cc1` [Example 54, N-{4-[5-cyclopropyl-3-(trifluoromethyl)-1H-pyrazol-1-yl]phenyl}-N,4-dimethylthiazole-5-carboxamide], the inhibition at 1 µM came to 0%.

As for `Cc1noc(C)c1C(=O)Nc1ccc(-n2nc(C(F)(F)F)cc2C2CC2)cc1` [Example 57, N-{4-[5-cyclopropyl-3-(trifluoromethyl)-1H-pyrazol-1-yl]phenyl}-3,5-dimethylisoxazole-4-carboxamide], the inhibition at 1 µM was 83.8%.

On to `Cn1ccnc1C(=O)Nc1ccc(-n2nc(C(F)(F)F)cc2C2CC2)cc1` [Example 58, N-{4-[5-cyclopropyl-3-(trifluoromethyl)-1H-pyrazol-1-yl]phenyl}-1-methyl-1H-imidazole-2-carboxamide], for which the inhibition at 1 µM was determined as 40.5%.

For the compound `Cc1ccccc1C(=O)Nc1ccc(-n2nc(C(F)(F)F)cc2C2CC2)cc1` [Example 60, N-{4-[5-cyclopropyl-3-(trifluoromethyl)-1H-pyrazol-1-yl]phenyl}-2-methylbenzamide], the inhibition at 1 µM worked out at 83.7%.

Take `O=C(Nc1ccc(-n2nc(C(F)(F)F)cc2C2CC2)cc1)c1cccc(F)c1F` [Example 61, N-{4-[5-cyclopropyl-3-(trifluoromethyl)-1H-pyrazol-1-yl]phenyl}-2,3-difluorobenzamide]: the inhibition at 1 µM was found to be 100%.

`O=C(Nc1ccc(-n2nc(C(F)(F)F)cc2C2CC2)cc1)c1c(F)cccc1F` [Example 62, N-{4-[5-cyclopropyl-3-(trifluoromethyl)-1H-pyrazol-1-yl]phenyl}-2,6-difluorobenzamide]: the inhibition at 1 µM worked out at 100%.

Take `CS(=O)(=O)c1cccc(C(=O)Nc2ccc(-n3nc(C(F)(F)F)cc3C3CC3)cc2)c1` [Example 63, N-{4-[5-cyclopropyl-3-(trifluoromethyl)-1H-pyrazol-1-yl]phenyl}-3-(methylsulfonyl)benzamide]: the inhibition at 1 µM came to 39.1%.

For the compound `CSc1ccc(Cl)c(C(=O)Nc2ccc(-n3nc(C(F)(F)F)cc3C3CC3)cc2)c1` [Example 64, 2-chloro-N-{4-[5-cyclopropyl-3-(trifluoromethyl)-1H-pyrazol-1-yl]phenyl}-5-(methylthio)benzamide], the inhibition at 1 µM is 100%.
